This is an account of results in PMC8447191, “Peptide Amphiphilic-Based Supramolecular Structures with Anti-HIV-1 Activity” (Bioconjugate Chemistry, 2021).

The structures appear in SMILES notation. Read-outs that look alike come from different tables or passages of the source. *1 amine or outer side, *2 acyl side, *3 side chain or, on linkers, in order; H or OH if unused. Where a SMILES comes first, the peptide text is derived from it. Side-chain parts run from the residue outwards. The star is where a group is joined. X1 = CC(C)CCC[C@@H](C)[C@H]1CC[C@H]2[C@@H]3CC=C4C[C@@H](OC(=O)CSC[C@H](N)C(=O)*)CC[C@]4(C)[C@H]3CC[C@]12C; PEG28 = NCCOCCOCCOCCOCCOCCOCCOCCOCCOCCOCCOCCOCCOCCOCCOCCOCCOCCOCCOCCOCCOCCOCCOCCOCCOCCOCCOCCOCCC(=O)O; N(octadecyl)2 = CCCCCCCCCCCCCCCCCCN(CCCCCCCCCCCCCCCCCC)*; NHOctadecyl = CCCCCCCCCCCCCCCCCCN*; Suc = O=C(CCC(=O)[*:2])[*:1]

One may read the IC50 as the concentration at which inhibition is half-maximal. By CC50 is commonly meant the concentration at which the toxic effect on the cells reaches its halfway point. Read a low CC50 as greater toxicity to the cells.

The test system of data set [1] is HIV-1BaL. The data set is classed as cell-based. To be noted: for IC50 / IC95: HIV-1BaL, TZM-bl cells, peptide 10-0.00061 μM for 1 h at 37 °C before virus, luciferase after 48 h, sigmoid fit, mean of triplicates; for SI (CC50/IC50): ratio of CC50 (MTT assay) to IC50 (HIV-1BaL, TZM-bl cells). Here is the method: HIV-1BaL[52] was provided by the NIH AIDS Research & Reference Reagent Program (http://www.aidsreagent.org/). Viral stock was prepared by passage through activated PBMCs[53] for 11 days.
Luciferase-reporter HeLa cells stably transfected to express CD4 and CCR5; TZM-bl cells[54]−[56] were grown in Dulbecco’s Minimal Essential Medium (DMEM) (Sigma-Aldrich, Inc., St. Louis, MO) containing 10% fetal calf serum (FCS), 2 mM L-glutamine, and antibiotics (100 U of penicillin/mL, 100 μg of streptomycin/mL) at 37 °C in an atmosphere containing 5% CO2.
(§1) All inhibition assays in cellular and tissue explants models were performed using a standardized amount of virus culture supernatant normalized for infectivity. TZM-bl cells were incubated with serial dilutions of peptides (from 10 μM to 0.00061 μM) for 1 h at 37 °C, prior to challenge with HIV-1BaL. Luciferase expression (r.l.u. values) was determined after 48 h. Alternatively, tissue explants were incubated with serial dilutions of peptide (from 100 μM to 0.1 μM) for 1 h before virus (10^4 TCID50/mL) was added for 2 h. Explants were then washed four times with PBS to remove unbound virus and drug. Colorectal explants were then transferred onto gelfoam rafts (Welbeck Pharmaceuticals, UK) and cultured for 15 days as described previously[57] […]. Explants were cultured for up to 15 days in the absence of peptide. Approximately 50% of the supernatants were harvested every 2–3 days and explants were re-fed with fresh media. The extent of viral replication in tissue explants was determined by measuring the p24 antigen concentration in supernatants (INNOTEST HIV antigen mAb; Fujirebio Europe, Belgium). The extent of inhibition by each peptide was calculated. The percentage of inhibition was normalized relative to the r.l.u, for TZM-bl cells, or p24, for tissue explants, values obtained for cells or explants cultured in the absence of virus (100% inhibition) and for cells or explants infected with virus in the absence of peptide (0% inhibition). Data are the mean (±SEM) of triplicates. When a dose–response curve was obtained, IC50 and, if possible, IC95 values were calculated from sigmoid curve fits (GraphPad Prism). For all curves, R^2 is >0.7.
For orientation: Formazan colour is commonly taken as a measure of viable cells.

The nature of another data set: MTT cytotoxicity assay. The data set is classed as cell-based. To be noted: human, HeLa-env cells, PAs coassembled with 5% FAM, 40-2.3 μM, absorbance 560 nm. The method, then: The metabolic activity of the cell line, related to the cytotoxic effect of the compounds to be tested, is measured after 24 h using the MTT assay. This assay is based on the metabolic reduction of 3-(4,5-dimethylthiazol-2-yl)-2,5-diphenyl-2H-tetrazolium bromide (MTT), carried out by the mitochondrial enzyme succinate dehydrogenase, in a colored compound of blue color (formazan) that can be monitored by absorbance spectroscopy at 560 nm, allowing determination of the mitochondrial functionality of the treated cells.
The HeLa-env cell line is seeded in 96-well plates with an initial density of 15,000 cells per well in 100 μL of culture medium (Dulbecco’s modified Eagle’s medium, DMEM, with 10% FBS added) and incubated for 24 h at 37 °C and 5% CO2 to allow their adhesion. The cell monolayers are washed with PBS, and then 100 μL of PAs formulations (peptide amphiphiles coassembled with 5% FAM) are added in a concentration range from 40 μM to 2.3 μM. The plates are kept in incubation for further 24 h.
At the end of the incubation time, the cells are incubated for 3 h with 1 mg/mL of MTT, dissolved in culture medium without FBS, to allow the formation of formazan crystals. Subsequently, 100 μL of DMSO are added to wells, stirring the plates for 30 min at room temperature to facilitate the complete dissolution of the crystals. Finally, the absorbance at 560 nm is measured in a microplate reader.
The results are expressed as relative percentage between absorbance of PA formulations against absorbance of its DMSO controls and CC50 and CC25 values are taken from dose–response curves.

A short description of data set [2]: Visual stability and aspect of POPC vesicles mixed with PAs (SAXS samples). To be noted: POPC 20 mM + 2 mM PA, 0.5% DMSO. The data set is classed as physicochemical. Here is the method:
In Figure 5A,B, we show the spectra corresponding to POPC 20 mM and POPC 20 mM + 2 mM PAs (all of them in the presence of 0.5% DMSO). The band centered at 1.2 nm^–1 and the secondary band at 3.2 nm^–1 were typical of unilamellar vesicles.[35]
The incorporation of PAs had some distinct consequences. The first and more obvious one is the distinction between stable and unstable systems.

For data set [3], the system named is HIV-1BaL. The data set is classed as cell-based. As to conditions: colorectal tissue explants, peptide 100-0.1 μM for 1 h before and 2 h during virus (pulse, 3 h), p24 ELISA at day 15, mean (SEM) of triplicates.
Description: Human tissue explants: Surgically resected specimens of colorectal tissues were collected from HIV negative patients at St. Mary’s Hospital, Imperial College Healthcare NHS Trust, London, UK. All tissues were collected after receiving signed informed consent from all patients through the Imperial College Healthcare Tissue Bank approved by Research Ethics Committee Wales (IRAS 17/WA/0161). On arrival in the laboratory, resected tissue was cut into 2–3 mm^3 explants comprising both epithelial and muscularis mucosae as described previously.[57] Tissue explants were maintained with DMEM containing 10% fetal calf serum, 2 mM L-glutamine, and antibiotics (100 U of penicillin/mL, 100 μg of streptomycin/mL, 80 μg of gentamicin/mL) at 37 °C in an atmosphere containing 5% CO2.
as §1

Assay in data set [4]: not given
This is another data set of the same source.

Consider `CC[C@H](C)[C@H](NC(=O)[C@@H](NC(=O)CNC(=O)[C@H](CCCNC(=N)N)NC(=O)[C@H](Cc1c[nH]c2ccccc12)NC(=O)[C@H](Cc1ccccc1)NC(=O)[C@H](CC(=O)O)NC(=O)[C@H](Cc1ccccc1)NC(=O)[C@@H]1CCCN1C(=O)[C@@H](NC(=O)[C@H](CCCCN)NC(=O)[C@H](Cc1c[nH]c2ccccc12)NC(=O)[C@H](CC(C)C)NC(=O)[C@H](Cc1ccc(O)cc1)NC(=O)[C@H](CCC(=O)O)NC(=O)[C@H](CC(C)C)NC(=O)[C@@H](NC(=O)[C@@H](N)Cc1c[nH]c2ccccc12)[C@@H](C)CC)C(C)C)C(C)C)C(=O)N[C@@H](CCCCNC(=O)CCOCCOCCOCCOCCOCCOCCOCCOCCOCCOCCOCCOCCOCCOCCOCCOCCOCCOCCOCCOCCOCCOCCOCCOCCOCCOCCOCCOCCNC(=O)[C@@H](N)CSCC(=O)O[C@H]1CC[C@@]2(C)C(=CC[C@H]3[C@@H]4CC[C@H]([C@H](C)CCCC(C)C)[C@@]4(C)CC[C@@H]32)C1)C(N)=O` [C-PAchol] (H-WILEYLWKVPFDFWRGVIK([PEG28-X1])-NH2), for which the lamellar characteristic distance was found to be 4.9 nm. This compound showed an IC50 with HIV-1BaL [1] of 1.71 µM. Also, the CC50 at 24 h in “MTT cytotoxicity assay” was more than 40 µM. Besides, the “stability / aspect of the sample” value in data set [2] is reported as “bluish”.

Compound `CCCCCCCCCCCCCCCCCCN(CCCCCCCCCCCCCCCCCC)C(=O)CCC(=O)NCCOCCOCCOCCOCCOCCOCCOCCOCCOCCOCCOCCOCCOCCOCCOCCOCCOCCOCCOCCOCCOCCOCCOCCOCCOCCOCCOCCOCCC(=O)NCCCC[C@H](NC(=O)[C@@H](NC(=O)[C@@H](NC(=O)CNC(=O)[C@H](CCCNC(=N)N)NC(=O)[C@H](Cc1c[nH]c2ccccc12)NC(=O)[C@H](Cc1ccccc1)NC(=O)[C@H](CC(=O)O)NC(=O)[C@H](Cc1ccccc1)NC(=O)[C@@H]1CCCN1C(=O)[C@@H](NC(=O)[C@H](CCCCN)NC(=O)[C@H](Cc1c[nH]c2ccccc12)NC(=O)[C@H](CC(C)C)NC(=O)[C@H](Cc1ccc(O)cc1)NC(=O)[C@H](CCC(=O)O)NC(=O)[C@H](CC(C)C)NC(=O)[C@@H](NC(=O)[C@@H](N)Cc1c[nH]c2ccccc12)[C@@H](C)CC)C(C)C)C(C)C)[C@@H](C)CC)C(N)=O` [C-PAdialkyl] (H-WILEYLWKVPFDFWRGVIK([PEG28-Suc-N(octadecyl)2])-NH2) showed a lamellar characteristic distance of 5.7 nm. Besides, in “MTT cytotoxicity assay”, the CC50 at 24 h is 25 µM. Also, in data set [2], the “stability / aspect of the sample” value is on record as “bluish”.

`CCCCCCCCCCCCCCCCCCNC(=O)CCC(=O)NCCOCCOCCOCCOCCOCCOCCOCCOCCOCCOCCOCCOCCOCCOCCOCCOCCOCCOCCOCCOCCOCCOCCOCCOCCOCCOCCOCCOCCC(=O)NCCCC[C@H](NC(=O)[C@@H](NC(=O)[C@@H](NC(=O)CNC(=O)[C@H](CCCNC(=N)N)NC(=O)[C@H](Cc1c[nH]c2ccccc12)NC(=O)[C@H](Cc1ccccc1)NC(=O)[C@H](CC(=O)O)NC(=O)[C@H](Cc1ccccc1)NC(=O)[C@@H]1CCCN1C(=O)[C@@H](NC(=O)[C@H](CCCCN)NC(=O)[C@H](Cc1c[nH]c2ccccc12)NC(=O)[C@H](CC(C)C)NC(=O)[C@H](Cc1ccc(O)cc1)NC(=O)[C@H](CCC(=O)O)NC(=O)[C@H](CC(C)C)NC(=O)[C@@H](NC(=O)[C@@H](N)Cc1c[nH]c2ccccc12)[C@@H](C)CC)C(C)C)C(C)C)[C@@H](C)CC)C(N)=O` [C-PAmonoalkyl] (H-WILEYLWKVPFDFWRGVIK([PEG28-Suc-NHOctadecyl])-NH2) yielded a lamellar characteristic distance of 4.7 nm. In the data set on HIV-1BaL [1], it took 0.08 µM to reach half-maximal inhibition (IC50), the IC95 is 5.60 µM and the “SI (CC50/IC50)” value worked out at 250. Moreover, in the data set on HIV-1BaL [3], it took 3.48 µM to reach half-maximal inhibition (IC50) and the IC95 is recorded as 24.29 (3.61) μM. It took 20 µM to reach half-maximal cytotoxicity in “MTT cytotoxicity assay” (CC50 at 24 h). Also, in data set [2], the “stability / aspect of the sample” value is “bluish”.

As to `CC[C@H](C)[C@H](NC(=O)[C@@H](NC(=O)CNC(=O)[C@H](CCCNC(=N)N)NC(=O)[C@H](Cc1c[nH]c2ccccc12)NC(=O)[C@H](Cc1ccccc1)NC(=O)[C@H](CC(=O)O)NC(=O)[C@H](Cc1ccccc1)NC(=O)[C@@H]1CCCN1C(=O)[C@@H](NC(=O)[C@H](CCCCN)NC(=O)[C@H](Cc1c[nH]c2ccccc12)NC(=O)[C@H](CC(C)C)NC(=O)[C@H](Cc1ccc(O)cc1)NC(=O)[C@H](CCC(=O)O)NC(=O)[C@H](CC(C)C)NC(=O)[C@@H](NC(=O)[C@@H](N)Cc1c[nH]c2ccccc12)[C@@H](C)CC)C(C)C)C(C)C)C(N)=O` [E1P47] (H-WILEYLWKVPFDFWRGVI-NH2), in the data set on HIV-1BaL [1], half-maximal inhibition (IC50) was put at 7.26 µM and the IC95 came out at 28.21 µM. The Trp fluorescence emission maximum (λmax) in data set [4] turned out to be 356 nm.

Take `CCCCCCCCCCCCCCCCCCNC(=O)CCC(=O)NCCOCCOCCOCCOCCOCCOCCOCCOCCOCCOCCOCCOCCOCCOCCOCCOCCOCCOCCOCCOCCOCCOCCOCCOCCOCCOCCOCCOCCC(=O)N[C@@H](Cc1c[nH]c2ccccc12)C(=O)N[C@H](C(=O)N[C@@H](CC(C)C)C(=O)N[C@@H](CCC(=O)O)C(=O)N[C@@H](Cc1ccc(O)cc1)C(=O)N[C@@H](CC(C)C)C(=O)N[C@@H](Cc1c[nH]c2ccccc12)C(=O)N[C@@H](CCCCN)C(=O)N[C@H](C(=O)N1CCC[C@H]1C(=O)N[C@@H](Cc1ccccc1)C(=O)N[C@@H](CC(=O)O)C(=O)N[C@@H](Cc1ccccc1)C(=O)N[C@@H](Cc1c[nH]c2ccccc12)C(=O)N[C@@H](CCCNC(=N)N)C(=O)NCC(=O)N[C@H](C(=O)N[C@H](C(N)=O)[C@@H](C)CC)C(C)C)C(C)C)[C@@H](C)CC` [N-PAmonoalkyl] ({NHOctadecyl-Suc-PEG28}-WILEYLWKVPFDFWRGVI-NH2): in the data set with HIV-1BaL [1], the IC50 is 0.2 µM, the IC95 was 5.87 µM and the “SI (CC50/IC50)” value came out at 85. Also, in the data set on HIV-1BaL [3], the IC50 is 0.28 µM and the IC95 is on record as 2.53 (1.14) μM. The compound also yielded a CC50 at 24 h in the data set “MTT cytotoxicity assay” of 17 µM. The “stability / aspect of the sample” value in data set [2] is “precipitated rather fast and made compact flocks”.
